Measured values as given in US20040176294A1, “Use of thyroid-stimulating hormone to induce lipolysis” (priority 2003, published 2004).

Experiments:
[1] = system: male ob/ob mice; test: Acute stimulation of lipolysis in vivo (serum glycerol and FFA); conditions: CL 1 mg/kg IP
Description: TSH, the β3-adrenoreceptor agonist CL 316,243 (CL), and saline vehicle were examined for stimulation of lipolysis in mice following an overnight fast. […] Lipolysis was assessed as the change in serum glycerol or FFA compared to baseline.
C57BL/6 male ob/ob mice, age 10 weeks, were grouped to normalize weight (n=7-8 for each treatment; average group weight=37.8 g+/−0.4 g). Mice were housed individually for 18 hours prior to treatment, at which time food was withdrawn, with free access to water given. At approximately 8 a.m., the subjects were anesthetized with halothane and blood samples taken by retro-orbital eye bleeds. The blood was allowed to clot, and the serum was separated by centrifugation and frozen for later analysis. Test substances were administered by IP injection in a volume of 0.1 ml, and the animals replaced in their cages for 2 hours with free access to water. At 2 hours, the mice were sacrificed and blood drawn by cardiac puncture.
For measuring free fatty acids in serum, the method previously described for measuring free fatty acids in conditioned medium was followed, with the following modifications. […] The absorbance at 530 nm was measured on the Wallac Victor2 Multilabel counter. […]
Sigma reagent A was reconstituted to 0.5× the recommended concentration. […] The absorbance at 530 nm was measured on the Wallac Victor2 Multilabel counter.

[2] = system: male ob/ob mice; test: Chronic treatment of ob/ob mice: liver steatosis histology score; assay type: in vivo; conditions: H&E sections, n=4, vehicle score 4
Description: (§1) 11-week old male ob/ob mice were individually caged and given a standard lab chow (4% fat) with free access to food and water. Animals were assigned to a treatment group (n=7-8, average weight 54.3+/−0.3 g per group), kept on a 12 hour dark cycle (6 PM to 6 AM), and injected each day between 7 and 9 AM. Chow consumed by each animal was weighed twice weekly. All animals received treatments IP with an injection volume of 0.1 ml. […] Thyroid hormone (T4) was administered at 1.5 μg/mouse for 4 days, reduced to 1 [μg/mouse for 10 days, and returned to 1.5 μg/mouse for the next 14 days. The vehicle controls received sterile saline.
Liver sections were dissected from all treatment groups described above and mounted in paraffin following fixation with NBS-formalin. Sections were mounted and stained with hematotoxylin and eosin (H&E) for visualization of hepatic structural changes. The extent of liver steatosis was evaluated on a four-point scale, […], with zero displaying no signs of liver steatotosis, and 4, representing pronounced macrovesicular and microvesicular steatosis.

[3] = system: male ob/ob mice; test: Chronic treatment of ob/ob mice: serum lipid analysis; assay type: in vivo; conditions: 5 weeks of treatment, fasted 4 hours
Description: as §1
The study set used for the IPGTT was treated an additional 7 days before sacrifice (total treatment time of 5 weeks). Subject animals were fasted for 4 hours at the beginning of the light cycle, and serum was obtained at sacrifice under isoflurane anesthesia. Triglyceride and total cholesterol levels were determined with the Cholestech LDX blood analyzer (Cholestech Corporation, Hayward Calif.).

[4] = system: male ob/ob mice; test: Chronic treatment of ob/ob mice: intraperitoneal glucose tolerance test (IPGTT); assay type: in vivo; conditions: 4 weeks of treatment; for baseline blood glucose: fasted four hours, n=4; for insulin sensitivity and glucose clearance versus vehicle: IPGTT glucose […]
Description: as §1
Following 4 weeks of daily treatment as described above, mice (n=4/group) were fasted for four hours immediately following the beginning of the light cycle, and a blood sample obtained before IP injection of a glucose solution (1.5 g/kg body weight). Blood samples were obtained at 20, 40, and 120 minutes following injection to evaluate changes in serum glucose and insulin. Glucose concentrations were determined with a Freestyle blood glucose monitor (Therasense Corp.), and insulin concentrations were determined with a commercial ELISA kit (Alpco Diagnostics, Windham N. H.).

[5] = system: male ob/ob mice; test: Chronic treatment of ob/ob mice: adipose tissue depot mass; assay type: in vivo; conditions: after 4 weeks of treatment, n=4
Description: as §1
Four animals from each group were analyzed for evaluation of changes in adipose tissue depot mass after 4 weeks of treatment. Following sacrifice, brown scapular fat (IBAT) and intra-abdominal fat were dissected and the tissues weighed. […] Elevated thyroid hormone levels are known to act to stimulate]BAT. […] The mesangial fat depot was dissected and removed from the colon for weight determination. Mesangial fat is white adipose tissue and is only readily visualized and dissected in obese mice. Mesangial white fat was removed by carefully stripping the fat, associated matrix and vascular supporting bed from the length of the colon.

[6] = system: male ob/ob mice; test: in vivo; conditions: mouse
Description: as §1
(§2) After 25 days of treatment as described above, blood was sampled from all treated animals (n=7-8/group), serum separated, and analyzed for total T4 by a commercially available kit (Biocheck, Burlingame, Calif.).

[7] = system: human primary adipocytes; test: CRE-luciferase reporter (cAMP) assay in primary human adipocytes; assay type: cell-based; conditions: 4 hours
Source text: (§3) 3T3 L1 fibroblasts were differentiated into adipocytes and the cells were transduced with recombinant adenovirus containing a reporter construct, a firefly luciferase gene under the control of cAMP response element (CRE) enhancer sequences. This assay system detects cAMP-mediated gene induction downstream of activation of Gs-coupled G-protein coupled receptors (GPCR's). […] In a separate experiment, undifferentiated 3T3 L1 fibroblasts were transduced with the recombinant adenovirus. […] In another experiment, human primary adipocytes were also transduced with the recombinant adenovirus containing a reporter construct.
(§4) Cells were cultured at 37° C. in an 8% CO2 humidified incubator. Cells were seeded in collagen-coated 96-well plates (Becton Dickinson, cat. # 356407) at a density of 5,000 cells per well. Two days later, differentiation medium was added as follows: DMEM high glucose containing 10% fetal bovine serum (Hyclone, cat. # SH30071), 1 μg/ml insulin, 1 μM dexamethasone, and 0.5 mM 3-isobutyl-methyl xanthine (ICN, cat. #195262). The cells were incubated at 37° C. in 8% CO2 for 4 days and the medium replaced with DMEM high glucose containing 10% fetal bovine serum and 1 μg/ml insulin. The cells were incubated at 37° C. in 8% CO2 for 3 days, then the medium was replaced with DMEM high glucose containing 10% fetal bovine serum.

[8] = system: differentiated 3T3 L1 adipocytes; test: CRE-luciferase reporter (cAMP) assay in differentiated 3T3 L1 adipocytes; assay type: cell-based, murine; conditions: differentiated 3T3 L1 cells, 4 hours
Source text: as §3, §4

[9] = system: male ob/ob mice; test: Chronic treatment of ob/ob mice: body weight and food intake; assay type: in vivo; conditions: daily IP treatment, 28 days
Description: as §1
Body weight changes were assessed as the percentage increase in body weight from the beginning of the study.

[10] = in vivo; set-up: species or system mice; conditions: male, ob/ob, mouse
Description: as §1, §2

Row | concentration at 25 days [10] | SMILES | serum glycerol and FFA levels [1] | average liver steatosis score [2] | serum triglyceride [3] | total cholesterol [3] | baseline blood glucose [4] | insulin sensitivity and glucose clearance versus vehicle [4] | brown scapular fat (IBAT) mass [5] | mesangial white fat depot weight [5] | total T4 in serum [6] | induction of luciferase expression / reporter gene [7] | induction of luciferase expression [8] | percentage increase in body weight from the beginning of the study [9]
1 | – | C[C@H](Cc1ccc2c(c1)OC(C(=O)[O-])(C(=O)[O-])O2)NC[C@H](O)c1cccc(Cl)c1.[Na+].[Na+] [CL 316,243] | significantly elevated serum glycerol and FFA levels | 1 | 191 ± 9 mg/dL | 198 ± 7 mg/dL | 139 ± 9 mg/dL | exhibited increased insulin sensitivity and increased clearance of the glucose load | 0.87 ± 0.03 g | 1.53 ± 0.10 g | 5.14 ± 0.19 µg/dL | – | – | –
2 | – | CC(C)NCC(O)c1ccc(O)c(O)c1 (centres unmarked) [isoproterenol] | – | – | – | – | – | – | – | – | – | 22 fold | 50 fold | –
3 | 90.4 ng/mL | N[C@@H](Cc1cc(I)c(Oc2cc(I)c(O)c(I)c2)c(I)c1)C(=O)O [thyroxine] | – | 3 | 297 ± 30 mg/dL | 231 ± 11 mg/dL | 252 ± 34 mg/dL | did not exhibit increased glucose clearance | 1.26 ± 0.03 g | 1.18 ± 0.11 g | – | – | – | 9.4+/−0.5%
